Consider 2 molecules from patent US7842683B2, “Neurotherapeutic compositions and method” (Revaax Pharmaceuticals, LLC, priority 1999, dated 2010).

The test system of one data set is Male Wistar rats. Kind of data set: Elevated plus-maze (anxiolytic activity). The format is in vivo, rat. As to conditions: 1 mM, 2 ul into lateral ventricle, 60 min. The source says: The elevated plus-maze was developed for the detection of anxiolytic and anxiogenic drug effects in the rat (Pellow et al., 1985). The method has been validated behaviorally, physiologically, and pharmacologically. The plus-maze consists of two open arms and two enclosed arms. […] Conversely, anxiogenic compounds like yohimbin or amphetamines reduce open arm entries and time spent in the open arms.
Male Wistar rats weighing 250-300 g were group housed in a normal 12:12 light-dark cycle light on at 0800 hr and provide food and water ad libitum. The plus-maze consisted of two open arms, 50×10 cm, and two enclosed arms 50×10×40 cm with an open roof, arranged such that the two open arms were opposite to each other. The maze was elevated to a height of 50 cm.
Eight animals were tested in the plus-maze 90 min following IP injection with 50 μg/kg Mox and saline vehicle. The order of treatments was counter balanced with at least 48 hrs between injections. At the start of the experiment the animal was place in the center of the plus maze facing the closed arm. Over a five min observation period, animals were scored for the latency to enter the closed arm, time spent in the closed arm and the number of open arm entries following the first occupation of the closed arm (FIG. 7).
Because Mox and CDP have different bioavailability profiles, e.g. brain penetrance, their CNS activity could not be compared by giving systemic injections of equimolar concentrations of each drug. Instead it was necessary to give both drugs directly into the cerebroventricular system to by pass the blood brain barrier. Animals were anesthetized with sodium pentobarbital (50 mg/kg), implanted with microinjection guide cannulae aimed at the lateral ventricle and allowed to recover for two days before testing. To groups of six animals each were tested with Mox or CDP. Each animals received a injection of drug and 0.9% NaCl vehicle on two separate days. The order of injections was counterbalanced and separated by two days. Both Mox and CDP were prepared in 0.9% NaCl at a concentration of 1 mM. All injections were given in a volume of 2 ul over 10 secs in fully conscious, restrained animals. Sixty min later animals were tested in the plus-maze for a 3 min observation period and scored for behaviors as noted previously.
The elevated plus-maze was developed for screening anxiolytic and anxiogenic drug effects in the rat (Pellow et al., 1985). The method has been validated behaviorally, physiologically, and pharmacologically. The plus-maze consists of two open arms and two enclosed arms. […] Conversely, anxiogenic compounds like yohimbin or amphetamines reduce open arm entries and time spent in the open arms.
Male Wistar rats weighing 250-300 g were group housed in a normal 12:12 light-dark cycle with light on at 0800 hr and provided food and water ad libitum. The plus-maze consisted of two open arms, 50 cm long, 10 cm wide, with walls 40 cm high made of clear Plexiglas. The two closed arms had the same dimensions but included a roof. The Plexiglas for the closed arms was painted black. Each pair of arms was arranged opposite to each other to form the plus-maze. The maze was elevated to a height of 50 cm. Eighteen animals were tested in the plus-maze 90 min following the IP injection of 1.0 μg/kg CLAV, 50 or vehicle control in a volume of ca. 0.3 ml. The order of treatments was counter balanced with at least 48 hrs between injections. At the start of the experiment, the animal was placed at the end of one of the open arms. Over a five min observation period, animals were scored for the latency to enter the closed arm, time spent in the closed arm and the number of open arm entries following the first occupation of the closed arm. The study produced tables of repeated measures. The data between treatments were compared with a two-way, repeated measures ANOVA followed by Bonferroni post hoc tests. […]

The subject of the next data set is golden hamsters. Kind of data set: Seed finding model of anxiety. The format is in vivo, Syrian golden hamsters (Mesocricetus auratus). As to conditions: dose not given. The source says: Clavulanic acid (CLAV) is structurally similar to the beta-lactam antibiotics. A most robust and simple bioassay for screening beta-lactams for CNS activity is the golden hamster seed finding model of anxiety. Briefly, hamsters are deprived of food overnight. The following day they are exposed to the additional stress of being taken from their home cage and placed in a novel environment for a few minutes. This manipulation stimulates the release of the stress hormone cortisol (FIG. 37). During their absence from the home cage, sunflower seeds are hidden under the bedding in one of the corners. When returned to the home cage, hamsters routinely scramble along the walls for 1-2 min before settling down, locating and eating the seeds. However, animals treated with the benzodiazepine anxiolytic chlordiazepoxide find seeds in less than 10 sec.
Male, Syrian golden hamsters (Mesocricetus auratus) (120-130 g) obtained from Harlan Sprague-Dawley Laboratories (Indianapolis, Ind.) were housed individually in Plexiglas cages (24 cm×24 cm×20 cm), maintained on a reverse light:dark cycle (14L:10D; lights on at 19:00 hr) and provided food and water ad libitum. A range of concentrations of CLAV (saline vehicle, 0.1, 1.0, 10, 100 1,000 ng/kg) were tested in six groups of hamsters (4-8/group)(FIG. 25). All tests were conducted during the dark phase of the circadian cycle under dim red illumination. Prior to testing all animals were fasted for 20-24 hrs. Ninety min after intraperitoneal (IP) injection of drug, animals were taken from their home cage and placed into a holding cage for 2 min. During their absence, six sunflower seeds were buried under the bedding in one corner of their home cage. Animals were placed back into their home cage randomly facing any one of the empty corners and timed for their latency to find the seeds in a five min observation period. Latency times were analyzed with a one-way ANOVA followed by Scheffe's post hoc tests. Assumption of equal variances was tested (Hartley's F-max=2.1 p>0.05)
It was hypothesized that CLAV functioned as an anxiolytic in the seed finding assay by blocking NAALADase activity in the brain. If this notion were true then it would be predicted that drugs known to block NAALADase should also enhance seed finding. To this end, animals were treated with N-acetyl-beta-aspartyl-glutamic acid (beta-NAAG), a competitive inhibitor of NAALADase (Serval et al., 1992) and tested in the seed finding model of anxiety. The study was similar to that outlined in Section I with one notable exception. […] Beta-NAAG (FW 304) was given in a dose of 3 ng in a volume of 1 μl saline ICV. The average adult hamster brain weights ca. 1.2 g of which 22% is extracellular fluid. The estimated beta-NAAG concentration was 11 ng/ml or 36 nM.
Two groups of six animals each were fasted overnight as previously described and tested the following day. One group was treated with beta-NAAG and the other saline vehicle and one hr later timed for latency to find the hidden sunflower seeds. A Student t-test for unpaired data was used for statistical comparisons.

Another data set deals with rats. Kind of data set: Motor activity in an open field (plus-maze animals). Type of data set: in vivo, rat. As to conditions: 1 mM direct injection into the brain, 30 min prior to plus-maze. As for the experimental part: However, this depression of motor activity disappears following repeated administration of CDP over several days. […] To control for any non-specific effects of Mox and CDP on motor activity following their direct injection into the brain, animals were tested in the open field 30 min prior to testing in the plus (FIG. 18).
Immediately after each of the plus-maze tests reported above in Section II, animals were tested for general motor activity in an “open field.” Animals were placed into a large clean Plexiglas cage (48×32×40 cm) devoid of bedding. This open field was delineated into equal quadrants by tape on the underside of the cage. Animals were scored for motor activity by counting the number of quadrants traversed in 1 min.

The conditions of data set [1]: human, in vivo; cited from earlier work.
The test system of another data set is male golden hamsters. Kind of data set: Resident/intruder paradigm of offensive aggression. The format is in vivo, Syrian golden hamsters (Mesocricetus auratus). Conditions: D vs L isomer, 50 μg/kg IP. How it is done: Male Syrian golden hamsters (Mesocricetus auratus) (140-150 g) obtained from Harlan Sprague-Dawley Laboratories (Indianapolis, Ind.) were housed individually in Plexiglas cages (24 cm×24 cm×20 cm), maintained on a reverse light:dark cycle (14L:10D; lights on at 19:00 hr) and provided food and water ad libitum. Animals were acclimated to the reverse light:dark cycle for at least two weeks before testing. All behavioral tests were conducted during the dark phase of the circadian cycle. All animals were acquired and cared for in accordance with the guidelines published in the Guide for the Care and Use of Laboratory Animals (National Institutes of Health Publications No. 85-23, Revised 1985).
(§1) Agonistic behavior can be classified as either offensive or defensive aggression (Blanchard and Blanchard, 1977; Adams, […]; Albert and Walsh, 1984). Offensive aggression is characterized by the aggressor initiating an attack on an opponent, while defensive aggression lacks active approach. Both types of aggression have their own unique neurobehavioral systems. The stimuli that elicit offensive and defense attack are different, as are the sequences of behaviors that accompany each agonistic response. […] Offensive aggression is easily studied using male golden hamsters tested in a resident/intruder paradigm, an established model of offensive aggression (Ferris and Potegal 1988). Placing an unfamiliar male hamster into the home cage of another male hamster elicits a well-defined sequence of agonistic behaviors from the resident that includes offensive aggression.
Hamsters are nocturnal and as such all behavioral tests were performed during the first four hrs of the dark phase under dim red illumination. The resident was scored for offensive aggression, e.g., latency to bite the intruder, the total number of bites, total contact time with the intruder and flank marking over a 10 min test period (Ferris and Potegal, 1988). Flank marking is a form of olfactory communication in which a hamsters arches its back and rubs pheromone producing flank glands against objects in the environment (Johnson, 1986).
Parametric data, i.e., latencies and contact time, were analyzed with a one-way ANOVA followed by Newman-Keuls post hoc tests. Non parametric data, i.e., number of bites and flank marks, were analyzed with Kruskal-Wallis tests followed by Mann-Whitney U tests to determine differences between groups. Two sample comparisons were analyzed with paired and unpaired t-Tests for parametric data and Wilcoxon and Mann-Whitney Tests for paired and unpaired non-parametric data, respectively.
as §1, with “by an” for “by the”, “an opponent; while,” for “an opponent, while”, “Potegal 1988) in the context of defending the home burrow.” for “Potegal 1988).”
Hamsters are nocturnal and as such all behavioral tests were performed during the first four hrs of the dark phase under dim red illumination. The resident was scored for offensive aggression, e.g., latency to bite the intruder, the total number of bites, total contact time with the intruder and flank marking over a 10 min test period (Ferris and Potegal, 1988). […]

For another data set, the system named is bacteria. As to conditions: cited from earlier work.

For the molecule `CNC1=Nc2ccc(Cl)cc2C(c2ccccc2)=[N+]([O-])C1` [CDP, Chlordiazepoxide], the “time spent in the closed arm (dark)” value with Male Wistar rats is on record as “no effect”. Besides, in the data set on Male Wistar rats (3 min observation), the “latency to enter the closed arm” value is given as “no effect”. In the data set on golden hamsters, the “time to find seeds” value was “less than 10 sec”. Moreover, the “general motor activity in the open field” value in the data set on rats is “no significant effect”.
In the case of `CO[C@@]1(NC(=O)C(C(=O)O)c2ccc(O)cc2)C(=O)N2C(C(=O)O)=C(CSc3nnnn3C)CO[C@@H]21` (some centres unmarked) [D Mox], in data set [1], the “unbound fraction to plasma protein vs L isomer” value was “greater unbound fraction”. For the same molecule, in the data set with male golden hamsters, the contact time result is “no significant difference”, the flank marking entry is recorded as “no significant difference” and the “isomer affecting offensive aggressive behavior” value is reported as “active isomer”. Also, in the data set on male golden hamsters (90 min), the bite latency entry was “significantly increased” and the number of bites result is listed as “reduced”. In addition, the antibacterial activity entry with bacteria is listed as “has antibacterial activity”.
